Reference: US8088791B2, “Antibacterial agents” (Biots Scientific Management Pty Ltd, priority 2006, dated 2012)
Values after ≈ are worked out from the molar mass of the structure shown.

Tests used:
[1] = system: Bacillus subtilis 168CA; assay: Minimum Inhibitory Concentration (MIC) testing, broth microdilution, Bacillus subtilis; type: cell-based; conditions: Bacillus subtilis 168CA; for MIC: read-out: Bacillus subtilis MICs Activity
In short: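 Broth microdilution followed NCCLS M7-A5, in rich broth such as Mueller Hinton, inoculum at OD 0.09 diluted 1:100, compounds in 1.6% DMSO before inoculum. After 16–20 h at 37 °C, MIC was the lowest concentration without visible growth. Score A: ≦8 μg/ml, B: 16–64 μg/ml, C: >64 μg/ml.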

[2] = system: Staphylococcus aureus ATCC29213; assay: Minimum Inhibitory Concentration (MIC) testing, broth microdilution, Staphylococcus aureus; type: cell-based; conditions: Staphylococcus aureus ATCC29213; for MIC: read-out: Staphylococcus aureus MICs Activity
In short: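 Broth microdilution per NCCLS M7-A5 in Mueller Hinton broth, with compound in 1.6% DMSO and inoculum at OD 0.09 diluted 1:100. Plates incubated 16–20 h at 37°C. MIC is the lowest concentration with no visible growth; scored A ≤8, B 16–64, C >64 μg/ml.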

Row | Compound | MIC [1] | MIC [2] | Bacillus subtilis MICs Activity [1] | Staphylococcus aureus MICs Activity [2]
1 | CC(C)(C)c1nc(CCCOc2cccc(C(N)=O)c2)c(C(F)(F)F)o1 [Example 57, 3-{3-[2-(tert-Butyl)-5-(trifluoromethyl)-1,3-oxazol-4-yl]propoxy}benzenecarboxamide] | < 8 µg/mL | 16 to 64 µg/mL (≈ 43.2 to 173 µM) | – | –
2 | C=CCc1sc(COc2ccc(F)c(C(N)=O)c2F)nc1-c1ccc(OC)cc1 [Example 120, 3-[5-Allyl-4-(4-methoxy-phenyl)-thiazol-2-ylmethoxy]-2,6-difluoro-benzamide] | < 8 µg/mL | < 8 µg/mL | – | –
3 | CCCC/C=C/CCCCOc1cccc(C(N)=O)c1 [Example 58, 3-[(E)-5-Decenyloxy]benzenecarboxamide] | < 8 µg/mL | < 8 µg/mL | – | –
4 | CCc1ccc(-c2noc(COc3ccc(F)c(C(N)=O)c3F)n2)cc1 [Example 250, 3-[3-(4-Ethylphenyl)-1,2,4-oxadiazol-5-yl]methoxy-2,6-difluorobenzenecarboxamide] | < 8 µg/mL | < 8 µg/mL | – | –
5 | NC(=O)c1c(F)ccc(OCc2nc(-c3c(Cl)cccc3Cl)no2)c1F [Example 260, 3-[3-(2,6-Dichlorophenyl)-1,2,4-oxadiazol-5-yl]methoxy-2,6-difluorobenzenecarboxamide] | < 8 µg/mL | < 8 µg/mL | – | –
6 | CCCCCC/C=C/COc1cccc(C(N)=O)c1 [Example 49, 3-[(E)-2-Nonenyloxy]benzenecarboxamide] | < 8 µg/mL | < 8 µg/mL | – | –
7 | CC(Oc1ccc(F)c(C(N)=O)c1F)c1nc(-c2ccc(Cl)cc2)no1 (stereo not shown) [Example 324, 3-{1-[3-(4-Chloro-phenyl)-[1,2,4]oxadiazol-5-yl]-ethoxy}-2,6-difluoro-benzamide] | < 8 µg/mL | < 8 µg/mL | – | –
8 | NC(=O)c1cccc(OCc2cccc(Br)c2)c1 [Example 171, 3-[(3-Bromobenzyl)oxy]benzenecarboxamide] | 16 to 64 µg/mL (≈ 52.3 to 209 µM) | 16 to 64 µg/mL (≈ 52.3 to 209 µM) | – | –
9 | COc1ccc(Br)c(-c2csc(COc3ccc(F)c(C(N)=O)c3F)n2)c1 [Example 100, 3-[4-(2-Bromo-5-methoxy-phenyl)-thiazol-2-ylmethoxy]-2,6-difluoro-benzamide] | < 8 µg/mL | < 8 µg/mL | – | –
10 | COc1cccc(-c2noc(COc3ccc(F)c(C(N)=O)c3F)n2)c1 [Example 256, 2,6-Difluoro-3-[3-(3-methoxyphenyl)-1,2,4-oxadiazol-5-yl]methoxybenzenecarboxamide] | < 8 µg/mL | 16 to 64 µg/mL (≈ 44.3 to 177 µM) | – | –
11 | COC(=O)CCCOc1cccc(C(N)=O)c1 [Example 26, Methyl 4-[3-(aminocarbonyl)phenoxy]butanoate] | > 64 µg/mL | > 64 µg/mL | – | –
12 | COc1ccc(-c2nc(COc3ccc(F)c(C(N)=O)c3F)sc2-c2cccc(N)c2)cc1 [Example 284, 2,6-Difluoro-3-[5-(3-amino-phenyl)-4-(4-methoxy-phenyl)-thiazol-2-ylmethoxy]-benzamide] | < 8 µg/mL | < 8 µg/mL | – | –
13 | NC(=O)c1c(F)ccc(OCc2nc3ccccc3o2)c1F [Example 209, 3-(1,3-Benzoxazol-2-ylmethoxy)-2,6-difluorobenzenecarboxamide] | 16 to 64 µg/mL (≈ 52.6 to 210 µM) | > 64 µg/mL | – | –
14 | NC(=O)c1c(F)ccc(OCc2nc3cc(Cl)ccc3o2)c1F [Example 210, 3-[(5-Chloro-1,3-benzoxazol-2-yl)methoxy]-2,6-difluorobenzenecarboxamide] | < 8 µg/mL | < 8 µg/mL | – | –
15 | COc1cccc(-c2ccc3sc(COc4ccc(F)c(C(N)=O)c4F)nc3c2)c1 [Example 143, 2,6-Difluoro-3-[5-(3-methoxy-phenyl)-benzothiazol-2-ylmethoxy]-benzamide] | > 64 µg/mL | < 8 µg/mL | – | –
16 | NC(=O)c1c(F)ccc(OCc2csc(-c3cccc(O)c3)n2)c1F [Example 308, 2,6-Difluoro-3-[2-(3-hydroxy-phenyl)-thiazol-4-ylmethoxy]-benzamide] | < 8 µg/mL | 16 to 64 µg/mL (≈ 44.2 to 177 µM) | – | –
17 | NC(=O)c1c(F)ccc(OCCn2cccn2)c1F [Example 144, 2,6-Difluoro-3-(2-pyrazol-1-yl-ethoxy) benzamide] | – | – | C (‘C’ if the MIC was greater than 64 micrograms/ml) | C (‘C’ if the MIC was greater than 64 micrograms/ml)
18 | NC(=O)c1c(F)ccc(OCc2nc(Cc3ccc(Cl)cc3)no2)c1F [Example 265, 3-[3-(4-Chlorobenzyl)-1,2,4-oxadiazol-5-yl]methoxy-2,6-difluorobenzenecarboxamide] | < 8 µg/mL | 16 to 64 µg/mL (≈ 42.1 to 169 µM) | – | –
19 | NC(=O)c1c(F)ccc(OCC2COc3ccccc3O2)c1F (stereo not shown) [Example 204, 3-(2,3-Dihydro-1,4-benzodioxin-2-ylmethoxy)-2,6-difluorobenzenecarboxamide] | 16 to 64 µg/mL (≈ 49.8 to 199 µM) | 16 to 64 µg/mL (≈ 49.8 to 199 µM) | – | –
20 | NC(=O)c1c(F)ccc(OCCCCO)c1F [Example 178, 2,6-Difluoro-3-(4-hydroxybutoxy)benzenecarboxamide] | 16 to 64 µg/mL (≈ 65.2 to 261 µM) | 16 to 64 µg/mL (≈ 65.2 to 261 µM) | – | –
21 | NC(=O)c1c(F)ccc(OCc2nc3cc(-c4ccc(O)cc4)ccc3s2)c1F [Example 140, 2,6-Difluoro-3-[5-(4-hydroxy-phenyl)-benzothiazol-2-ylmethoxy]-benzamide] | > 64 µg/mL | < 8 µg/mL | – | –
22 | NC(=O)c1c(F)ccc(OCc2ccco2)c1F [Example 183, 2,6-Difluoro-3-(2-furylmethoxy)benzenecarboxamide] | 16 to 64 µg/mL (≈ 63.2 to 253 µM) | 16 to 64 µg/mL (≈ 63.2 to 253 µM) | – | –

Row | Compound | MIC [1] | MIC [2] | Bacillus subtilis MICs Activity [1] | Staphylococcus aureus MICs Activity [2]
23 | COc1ccc(-c2nc(COc3ccc(F)c(C(N)=O)c3F)sc2-c2cscn2)cc1 [Example 288, 2,6-Difluoro-3-[4′-(4-methoxy-phenyl)-[4,5′]bithiazolyl-2′-ylmethoxy]-benzamide] | < 8 µg/mL | < 8 µg/mL | – | –
24 | Cc1cccc(COc2cccc(C(N)=O)c2)c1 [Example 29, 3-[(3-Methylbenzyl)oxy]benzenecarboxamide] | 16 to 64 µg/mL (≈ 66.3 to 265 µM) | 16 to 64 µg/mL (≈ 66.3 to 265 µM) | – | –
25 | CCCCCCOc1cccc(C(N)=O)c1F [Example 165, 2-Fluoro-3-Hexoxy-benzamide] | < 8 µg/mL | < 8 µg/mL | – | –
26 | CCC1CC1CCCCOc1cccc(C(N)=O)c1 (stereo not shown) [Example 91, 3-[4-(2-Ethylcyclopropyl)butoxy]benzenecarboxamide] | < 8 µg/mL | < 8 µg/mL | – | –
27 | COc1ccc(-c2nc(COc3ccc(F)c(C(N)=O)c3F)sc2C2CC2)cc1 [Example 286, 3-[5-Cyclopropyl-4-(4-methoxy-phenyl)-thiazol-2-ylmethoxy]-2,6-difluoro-benzamide] | < 8 µg/mL | < 8 µg/mL | – | –
28 | CCCCCCOCCOc1cccc(C(N)=O)c1 [Example 54, 3-[2-(Hexyloxy)ethoxy]benzenecarboxamide] | 16 to 64 µg/mL (≈ 60.3 to 241 µM) | 16 to 64 µg/mL (≈ 60.3 to 241 µM) | – | –
29 | NC(=O)c1c(F)ccc(OCc2nc(-c3ccc(O)cc3)cs2)c1F [Example 290, 2,6-Difluoro-3-[4-(4-hydroxy-phenyl)-thiazol-2-ylmethoxy]-benzamide] | < 8 µg/mL | < 8 µg/mL | – | –
30 | CCCCC#CCCOc1cccc(C(N)=O)c1 [Example 59, 3-(3-Octynyloxy)benzenecarboxamide] | < 8 µg/mL | 16 to 64 µg/mL (≈ 65.2 to 261 µM) | – | –
31 | CC/C=C\CC/C=C/COc1cccc(C(N)=O)c1 [Example 56, 3-[(2E,6Z)-2,6-Nonadienyloxy]benzenecarboxamide] | < 8 µg/mL | < 8 µg/mL | – | –
32 | Cc1ccc2sc(COc3ccc(F)c(C(N)=O)c3F)nc2c1 [Example 148, 2,6-Difluoro-3-(5-methyl-benzothiazol-2-ylmethoxy)-benzamide] | < 8 µg/mL | < 8 µg/mL | – | –
33 | CCCCCCCCOc1cccc(C(N)=O)c1 [Example 19, 3-(Octyloxy)benzenecarboxamide] | < 8 µg/mL | < 8 µg/mL | – | –
34 | 3-Pentyl-2,3-dihydro-1,4-benzodioxine-6-carboxamide and 2-pentyl-2,3-dihydro-1,4-benzodioxine-6-carboxamide [Example 95] | – | – | B (‘B’ if the MIC was 16 to 64 micrograms/ml) | C (‘C’ if the MIC was greater than 64 micrograms/ml)
35 | CCCCC#CCCCOc1cccc(C(N)=O)c1 [Example 32, 3-(4-Nonynyloxy)benzenecarboxamide] | < 8 µg/mL | 16 to 64 µg/mL (≈ 61.7 to 247 µM) | – | –
36 | NC(=O)c1c(F)ccc(OCc2cccc(-c3ccccc3)c2)c1F [Example 102, 3-(Biphenyl-3-ylmethoxy)-2,6-difluoro-benzamide] | < 8 µg/mL | < 8 µg/mL | – | –
37 | NC(=O)c1c(F)ccc(OCc2nc(-c3ccccc3Cl)cs2)c1F [Example 99, 3-[4-(2-Chloro-phenyl)-thiazol-2-ylmethoxy]-2,6-difluoro-benzamide] | < 8 µg/mL | < 8 µg/mL | – | –
38 | Cc1csc(COc2ccc(F)c(C(N)=O)c2F)n1 [Example 193, 2,6-Difluoro-3-[(4-methyl-1,3-thiazol-2-yl)methoxy]benzenecarboxamide] | 16 to 64 µg/mL (≈ 56.3 to 225 µM) | 16 to 64 µg/mL (≈ 56.3 to 225 µM) | – | –
39 | NC(=O)c1c(F)ccc(OCc2nc(-c3ccc(O)cc3)co2)c1F [Example 312, 2,6-Difluoro-3-[4-(4-hydroxy-phenyl)-oxazol-2-ylmethoxy]-benzamide] | 16 to 64 µg/mL (≈ 46.2 to 185 µM) | < 8 µg/mL | – | –
40 | CCCCCOc1cccc(C(N)=O)c1 [Example 5, 3-(Pentyloxy)benzenecarboxamide] | 16 to 64 µg/mL (≈ 77.2 to 309 µM) | 16 to 64 µg/mL (≈ 77.2 to 309 µM) | – | –
41 | COc1cccc(COc2ccc(F)c(C(N)=O)c2F)c1 [Example 116, 2,6-Difluoro-3-(3-methoxybenzyloxy)-benzamide] | 16 to 64 µg/mL (≈ 54.6 to 218 µM) | 16 to 64 µg/mL (≈ 54.6 to 218 µM) | – | –
42 | NC(=O)c1c(F)ccc(OCc2nnc(C3CC3)s2)c1F [Example 138, 3-(5-Cyclopropyl-[1,3,4]thiadiazol-2-ylmethoxy)-2,6-difluoro-benzamide] | > 64 µg/mL | > 64 µg/mL | – | –
43 | C=CCCCCCOc1cccc(C(N)=O)c1 [Example 17, 3-(6-Heptenyloxy)benzenecarboxamide] | 16 to 64 µg/mL (≈ 68.6 to 274 µM) | 16 to 64 µg/mL (≈ 68.6 to 274 µM) | – | –
44 | Cc1ccccc1-c1nc(COc2ccc(F)c(C(N)=O)c2F)sc1Br [Example 130] | < 8 µg/mL | < 8 µg/mL | – | –
